# From PMC7155171, “Probing the Open Global Health Chemical Diversity Library for Multistage-Active Starting Points for Next-Generation Antimalarials” (ACS Infectious Diseases, 2020)
# Like-named read-outs stand apart in the source and are kept apart here.
# Key:
# [1] = system: P. falciparum Dd2 (PfLuc) line expressing firefly luciferase, asexual blood stage; test: microbe, parasite or virus in culture; type: cell-based, Plasmodium falciparum; conditions: Plasmodium falciparum
# P. falciparum Dd2 = test: SYBR green I asexual blood stage proliferation assay (96 h); type: cell-based, Plasmodium falciparum; conditions: for IC50 / Emax: Plasmodium falciparum
# [2] = DD2, read-out: CDD P. falciparum Luciferase ABS 11-pt Reconfirmation Dose Response (48hr): IC50 (μM), 11-pt dose response, 48hr
# [3] = DD2, 8-pt dose response, 96hr, read-out: CDD P. falciparum Luciferase ABS 8-pt Reconfirmation Dose Response (96hr): IC50
# [4] = DD2, 8-pt dose response, 96hr, read-out: CDD P. falciparum Luciferase ABS 8-pt Reconfirmation Dose Response (96hr): Maximum inhibition (%)
# [5] = DD2, 11-pt dose response, 48hr, read-out: CDD P. falciparum Luciferase ABS 11-pt Reconfirmation Dose Response (48hr): Maximum inhibition (%)
# [6] = DD2, 11-pt dose response, 96hr, read-out: CDD P. falciparum Luciferase ABS 11-pt Reconfirmation Dose Response (96hr): IC50
# [7] = DD2, 11-pt dose response, 96hr, read-out: CDD P. falciparum Luciferase ABS 11-pt Reconfirmation Dose Response (96hr): Maximum inhibition (%)
# [8] = DD2, Sybr Green I, 11-pt dose response, 96hr, read-out: CDD P. falciparum Sybr Green I ABS 11-pt Reconfirmation Dose Response (96hr): IC50
# [9] = DD2, Sybr Green I, 11-pt dose response, 96hr, read-out: CDD P. falciparum Sybr Green I ABS 11-pt Reconfirmation Dose Response (96hr): Maximum inhibition (%)
Structure (SMILES),"IC50 [1, 2] [µM]","IC50 [1, 3] [µM]","Emax [1, 4] [%]","Emax [1, 5] [%]","IC50 [1, 6] [µM]","Emax [1, 7] [%]",IC50 (P. falciparum Dd2; [8]) [nM],Emax (P. falciparum Dd2; [9]) [%],further results
Oc1ccc(Cl)cc1CNCc1cccc(C(F)(F)F)c1 [DDD01038245],> 4.16,0.82,91.9,64,10.6,79.2,3030,95.3,–
Cc1ccccc1CNCc1cc(Cl)ccc1O [DDD01038246],11,0.64,92.4,69.3,5.6,89.5,2600,97.5,–
COc1cccc(CNCc2ccccc2Cl)c1O [DDD01038247],7.91,0.9,89.5,79.1,1.97,96.2,5220,87.5,–
COc1cccc(CNCc2cccc(Cl)c2)c1O [DDD01038248],4.63,0.99,92.4,87.8,1.9,98,2690,92.1,–
COc1cccc(CNCc2ccc(F)cc2Cl)c1O [DDD01038249],> 4.16,0.94,87.2,36,2.78,95.4,> 4160,92.8,–
COc1cccc(CNCc2ccc(F)c(Cl)c2)c1O [DDD01038250],3.18,0.56,93.8,93.8,1.4,99.2,1970,98.2,–
Cc1cccc(NC(=O)c2cccc(OCc3nnnn3C)c2)n1 [DDD01038630],0.916,0.34,94.9,99.2,> 0.462,99.5,2540,99.2,–
CN[C@@H]1CCC[C@@H](Oc2ccccc2Oc2ccc(C)cc2)[C@@H]1O [DDD01056673],1.83,0.52,96,97,0.625,99.7,2330,99.2,–
"c1cnc(N2CCC(c3csc(Nc4cnccn4)n3)CC2)nc1 [DDD01056714, C1CN(CCC1c1csc(Nc2cnccn2)n1)c1ncccn1]",–,–,–,–,–,–,–,–,"IC50 ([1]; DD2, read-out: CDD P. falciparum Luc 11pt dose response (96hr, n=2): IC50 (μM), 96hr, 11-point, n=2): 0.0286 µM; IC50 ([1]; DD2, read-out: CDD P. falciparum Luciferase 11pt dose response (48hr, n=2): IC50 (μM), 48hr, 11-point, n=2): 0.0592 µM; Emax ([1]; DD2, 48hr, 11-point, read-out: CDD P. falciparum Luciferase ABS 11-pt Reconfirmation Dose Response (48hr): Maximum inhibition (%)): 82.6%; Emax ([1]; DD2, 96hr, 11-point, read-out: CDD P. falciparum Luciferase ABS 11-pt Reconfirmation Dose Response (96hr): Maximum inhibition (%)): 94.8%; CDD P. falciparum Sybr Green I ABS Dd2 Dose Response: Maximum measured (%) (P. falciparum Dd2; Dd2, 96 h): 55.9%; IC50 (P. falciparum Dd2; DD2, 96 h, read-out: CDD P. falciparum Sybr Green I ABS Dd2 Dose Response: IC50): > 4160 nM"
CCC(C)(C)n1nnnc1C(c1cccs1)N1CCc2ccccc2C1 (centres unmarked) [DDD01056726],3.18,0.56,91.1,71.7,0.803,93.7,4960,79.3,–
Cc1cccc(C)c1Nc1noc2c1CN(C(=O)c1ccnn1C)CC2 [DDD01056796],0.425,0.14,96.7,98.3,0.328,101,266,96.3,–
Cc1cccc(C)c1Nc1noc2c1CN(C(=O)c1cn(C)cn1)CC2 [DDD01056797],0.494,0.23,95.7,99.4,0.535,101,220,97.2,–
Cc1cccc(C)c1Nc1noc2c1CN(C(=O)c1c[nH]nc1C)CC2 [DDD01056871],1.9,0.77,–,87.7,1.38,96.9,2520,–,–
Cc1ccc(CN(CCN(C)C)Cc2c(C)nc3sccn23)o1 [DDD01056924],–,–,–,–,–,–,–,–,"IC50 ([1]; DD2, read-out: P. falciparum Luciferase ABS 11-pt Reconfirmation Dose Response (48hr): IC50, 11-pt dose response, 48hr): > 12.5 µM; IC50 ([1]; DD2, 8-pt dose response, 96hr, read-out: P. falciparum Luciferase ABS 8-pt Reconfirmation Dose Response (96hr): IC50): 1.82 µM; Emax ([1]; DD2, 11-pt dose response, 48hr, read-out: P. falciparum Luciferase ABS 11-pt Reconfirmation Dose Response (48hr): Maximum inhibition (%)): 65.3%; IC50 ([1]; DD2, 11-pt dose response, 96hr, read-out: P. falciparum Luciferase ABS 11-pt Reconfirmation Dose Response (96hr): IC50): 2.43 µM; Emax ([1]; DD2, 11-pt dose response, 96hr, read-out: P. falciparum Luciferase ABS 11-pt Reconfirmation Dose Response (96hr): Maximum inhibition (%)): 88.8%; IC50 (P. falciparum Dd2; DD2, 11-pt dose response, 96hr, read-out: P. falciparum Sybr Green I ABS 11-pt Reconfirmation Dose Response (96hr): IC50): > 4160 nM; Emax (P. falciparum Dd2; DD2, 11-pt dose response, 96hr, read-out: P. falciparum Sybr Green I ABS 11-pt Reconfirmation Dose Response (96hr): Maximum inhibition (%)): 52.1%"
